According to BindingDB's records for doi:10.1016/0960-894X(96)00287-9 (1996):

How the values were obtained:
[1] = Compound was tested for inhibition of NK1 receptor from gerbil midbrain; NT means not tested
[2] = Inhibition of [3H]-SP radioligand binding to NK1 receptor from bovine retina
[3] = Compound was tested for inhibition of [125I]eledoisin radioligand binding to NK3 receptor from gerbil cortex

Q: Which IC50 [1] does the source give for `O=C(c1cccc(Cl)c1)N1CC[C@H](NCc2ccnc3ccccc23)C[C@H]1Cc1ccccc1` [{(2R,4S)-2-Benzyl-4-[(quinolin-4-ylmethyl)-amino]-piperidin-1-yl}-(3-chloro-phenyl)-methanone] here?
A: Its IC50 is 54 nM.

Q: Which IC50 [1] does the source give for `NC(=O)CN[C@H]1CCN(C(=O)c2cc(C(F)(F)F)cc(C(F)(F)F)c2)[C@H](Cc2ccccc2)C1` [2-[(2R,4S)-2-Benzyl-1-(3,5-bis-trifluoromethyl-benzoyl)-piperidin-4-ylamino]-acetamide] here?
A: Its IC50 is 10 nM.

Q: With `Cc1cc(C)cc(C(=O)N2CC[C@H](NCc3ccccc3)C[C@H]2Cc2ccccc2)c1` [((2R,4S)-2-Benzyl-4-benzylamino-piperidin-1-yl)-(3,5-dimethyl-phenyl)-methanone] as the molecule, how does the IC50 [1] read?
A: The IC50 was 220 nM.

Q: For `FC(F)(F)c1cc(CN2CC[C@H](NCc3ccnc4ccccc34)C[C@H]2Cc2ccccc2)cc(C(F)(F)F)c1` [[(2R,4S)-2-Benzyl-1-(3,5-bis-trifluoromethyl-benzyl)-piperidin-4-yl]-quinolin-4-ylmethyl-amine], which IC50 [1] is on record?
A: The IC50 was 880 nM.

Q: Which IC50 [1] does the source give for `CC(C)NC(=O)N[C@H]1CCN(C(=O)c2cc(C(F)(F)F)cc(C(F)(F)F)c2)[C@H](Cc2ccccc2)C1` [1-[(2R,4S)-2-Benzyl-1-(3,5-bis-trifluoromethyl-benzoyl)-piperidin-4-yl]-3-isopropyl-urea] here?
A: The IC50 was 20 nM.

Q: For `O=S(=O)(c1cc(C(F)(F)F)cc(C(F)(F)F)c1)N1CC[C@H](NCc2ccnc3ccccc23)C[C@H]1Cc1ccccc1` [[(2R,4S)-2-Benzyl-1-(3,5-bis-trifluoromethyl-benzenesulfonyl)-piperidin-4-yl]-quinolin-4-ylmethyl-amine], which IC50 [1] is on record?
A: The IC50 was > 10000 nM.

Q: With `COc1cc(CC(=O)N[C@H]2CCN(C(=O)c3cc(C)cc(C)c3)[C@H](Cc3ccccc3)C2)cc(OC)c1` [N-[(2R,4S)-2-Benzyl-1-(3,5-dimethyl-benzoyl)-piperidin-4-yl]-2-(3,5-dimethoxy-phenyl)-acetamide] as the molecule, how does the IC50 [1] read?
A: Its IC50 is 12 nM.

Q: For `COc1cc(OC)cc(C(=O)N2CC[C@H](NCc3ccnc4ccccc34)C[C@H]2Cc2ccccc2)c1` [{(2R,4S)-2-Benzyl-4-[(quinolin-4-ylmethyl)-amino]-piperidin-1-yl}-(3,5-dimethoxy-phenyl)-methanone], which IC50 [1] is on record?
A: The IC50 was 92 nM.

Q: For `O=C(c1cc(Br)cc(Br)c1)N1CC[C@H](NCc2ccnc3ccccc23)C[C@H]1Cc1ccccc1` [{(2R,4S)-2-Benzyl-4-[(quinolin-4-ylmethyl)-amino]-piperidin-1-yl}-(3,5-dibromo-phenyl)-methanone], which IC50 [1] is on record?
A: Its IC50 is 24 nM.

Q: Which IC50 [1] does the source give for `O=C(c1cc(C(F)(F)F)cc(C(F)(F)F)c1)N1CC[C@H](NCc2ccnc3ccccc23)C[C@H]1Cc1ccccc1` [{(2R,4S)-2-Benzyl-4-[(quinolin-4-ylmethyl)-amino]-piperidin-1-yl}-(3,5-bis-trifluoromethyl-phenyl)-methanone] here?
A: The IC50 was 17 nM.

Q: Which IC50 [1] does the source give for `Cc1cc(C)cc(C(=O)N2CC[C@H](NCc3cc4ccccc4cn3)C[C@H]2Cc2ccccc2)c1` [{(2R,4S)-2-Benzyl-4-[(isoquinolin-3-ylmethyl)-amino]-piperidin-1-yl}-(3,5-dimethyl-phenyl)-methanone] here?
A: Its IC50 is 19 nM.

Q: With `Cc1cc(C)cc(C(=O)N2CC[C@H](NCc3ccncc3)C[C@H]2Cc2ccccc2)c1` [{(2R,4S)-2-Benzyl-4-[(pyridin-4-ylmethyl)-amino]-piperidin-1-yl}-(3,5-dimethyl-phenyl)-methanone] as the molecule, how does the IC50 [1] read?
A: The IC50 was 210 nM.

Q: With `O=C(c1cc(Cl)cc(Cl)c1)N1CC[C@H](NCc2ccnc3ccccc23)C[C@H]1Cc1ccccc1` [{(2R,4S)-2-Benzyl-4-[(quinolin-4-ylmethyl)-amino]-piperidin-1-yl}-(3,5-dichloro-phenyl)-methanone] as the molecule, how does the IC50 [1] read?
A: The IC50 was 26 nM.

Q: Which IC50 [1] does the source give for `O=C(c1cc(O)cc(O)c1)N1CC[C@H](NCc2ccnc3ccccc23)C[C@H]1Cc1ccccc1` [{(2R,4S)-2-Benzyl-4-[(quinolin-4-ylmethyl)-amino]-piperidin-1-yl}-(3,5-dihydroxy-phenyl)-methanone] here?
A: The IC50 was 520 nM.

Q: Which IC50 [1] does the source give for `CN(Cc1ccnc2ccccc12)[C@H]1CCN(C(=O)c2cc(Cl)cc(Cl)c2)[C@H](Cc2ccccc2)C1` [[(2R,4S)-2-Benzyl-4-(methyl-quinolin-4-ylmethyl-amino)-piperidin-1-yl]-(3,5-dichloro-phenyl)-methanone] here?
A: Its IC50 is 390 nM.

Q: For `NCC(=O)N[C@H]1CCN(C(=O)c2cc(C(F)(F)F)cc(C(F)(F)F)c2)[C@H](Cc2ccccc2)C1` [2-Amino-N-[(2R,4S)-2-benzyl-1-(3,5-bis-trifluoromethyl-benzoyl)-piperidin-4-yl]-acetamide], which IC50 [1] is on record?
A: The IC50 was 62 nM.

Q: Which IC50 [1] does the source give for `O=C(c1ccc2ccccc2c1)N1CC[C@H](NCc2ccnc3ccccc23)C[C@H]1Cc1ccccc1` [{(2R,4S)-2-Benzyl-4-[(quinolin-4-ylmethyl)-amino]-piperidin-1-yl}-naphthalen-2-yl-methanone] here?
A: The IC50 was 700 nM.

Q: With `O=C(Cc1ccccc1)N[C@H]1CCN(C(=O)c2cc(Cl)cc(Cl)c2)[C@H](Cc2ccccc2)C1` [N-[(2R,4S)-2-Benzyl-1-(3,5-dichloro-benzoyl)-piperidin-4-yl]-2-phenyl-acetamide] as the molecule, how does the IC50 [1] read?
A: Its IC50 is 60 nM.

Q: For `CN(C)CCCOC(=O)N[C@H]1CCN(C(=O)c2cc(C(F)(F)F)cc(C(F)(F)F)c2)[C@H](Cc2ccccc2)C1` [[(2R,4S)-2-Benzyl-1-(3,5-bis-trifluoromethyl-benzoyl)-piperidin-4-yl]-carbamic acid 3-dimethylamino-propyl ester], which IC50 [1] is on record?
A: The IC50 was 11 nM.

Q: With `O=C(c1cccc2ccccc12)N1CC[C@H](NCc2ccnc3ccccc23)C[C@H]1Cc1ccccc1` [{(2R,4S)-2-Benzyl-4-[(quinolin-4-ylmethyl)-amino]-piperidin-1-yl}-naphthalen-1-yl-methanone] as the molecule, how does the IC50 [1] read?
A: Its IC50 is 110 nM.

Q: Which IC50 [1] does the source give for `O=C(c1cc(Cl)cc(Cl)c1)N1CC[C@H](N(Cc2ccnc3ccccc23)C(=O)C(F)(F)F)C[C@H]1Cc1ccccc1` [N-[(2R,4S)-2-Benzyl-1-(3,5-dichloro-benzoyl)-piperidin-4-yl]-2,2,2-trifluoro-N-quinolin-4-ylmethyl-acetamide] here?
A: The IC50 was 600 nM.

Q: For `O=C(Cc1ccccc1)N1CC[C@H](NCc2ccnc3ccccc23)C[C@H]1Cc1ccccc1` [1-{(2R,4S)-2-Benzyl-4-[(quinolin-4-ylmethyl)-amino]-piperidin-1-yl}-2-phenyl-ethanone], which IC50 [1] is on record?
A: The IC50 was 3300 nM.

Q: With `Cc1cc(C)cc(C(=O)N2CC[C@H](NCc3cnc4ccccc4c3)C[C@H]2Cc2ccccc2)c1` [{(2R,4S)-2-Benzyl-4-[(quinolin-3-ylmethyl)-amino]-piperidin-1-yl}-(3,5-dimethyl-phenyl)-methanone] as the molecule, how does the IC50 [2] read?
A: Its IC50 is 30 nM.

Q: And the IC50 [3]?
A: Its IC50 is 10000 nM.

Q: With `O=C(Nc1ccccc1)N[C@H]1CCN(C(=O)c2cc(Cl)cc(Cl)c2)[C@H](Cc2ccccc2)C1` [1-[(2R,4S)-2-Benzyl-1-(3,5-dichloro-benzoyl)-piperidin-4-yl]-3-phenyl-urea] as the molecule, how does the IC50 [1] read?
A: The IC50 was 72 nM.
